Test results taken from patent publication US20080051351A1, “Substances, Compositions, and Methods for Treating Alopecia” (priority 2005, published 2008).

Test system: testosterone 5α-reductase
Assay: Testosterone 5α-reductase micro radioassay (crude nuclear fraction of ventral prostate)
Assay type: biochemical
Details: 0.1 mg/ml 17-alpha-estradiol, with or without 20 μg/ml UL-OHA; 37° C., 1 hour
Method: The effect of UL-OHA on inhibiting increase in testosterone 5α-reductase activity can be verified with a micro radioassay.
Biopsies of ventral prostate homogenized with 9 volumes of 0.1 M PBS are filtered through gauze and centrifuged at 3000 rpm for 10 minutes to obtain a crude nuclear fraction. The supernatant is discarded and the pellet resuspended in PBS. This process is repeated once again and the second suspension is used as enzyme solution for the assay.
1 mCi of [4-^14C] testosterone with 17-alpha-estradiol+UL-OHA (calculated for a final conc. of 0.1 mg/ml and 20 μg/ml respectively) and 17-alpha-estradiol (final conc. 0.1 mg/ml) are placed in test tubes and heated to dryness under nitrogen flow. 10 μl of 50 mM NADPH, 60 μl of PBS and 30 μl of testosterone 5α-reductase solution are added and the test tubes and incubated at 37° C. for 1 hour. Finally 0.4 ml of chloroform:methanol (1:2 v/v) are added in order to terminate the reaction and the mixture is centrifuged at 3000 rpm for 10 minutes. […]
The radioactive activity of each extract based on the resulting quantity of testosterone, 5α-dihydro-testosterone, 5α-androstan-3α,17β-diol and 5α-androstan-3β,17β-diol is measured by reading the intensity of isotope emission from the plates as described by Hamada K et al. (IFSCC Magazine 4(2):83-87, 2001). […]

Percentage inhibition of testosterone conversion relative to the control (anti-androgenic activity): 20%
Structure (SMILES): C[C@]12CC[C@@H]3c4ccc(O)cc4CC[C@H]3[C@@H]1CC[C@H]2O [17-alpha-estradiol]
